Consider 2 compounds from patent US4557871A, “Novel styrene derivatives of the general formula” (Taisho Pharmaceutical Co., Ltd., priority 1983, dated 1985).

In experiment [1] the test system is edema in left hind paw. As to the kind of experiment: Carrageenin-induced hind paw edema in rats, test compound orally 1 hour before (Winter's method), anti-inflammatory activity. The class given is in vivo, Male Wistar rats. Particulars: paw volume 3 hours after carrageenin; for Inhibition of edema: 6 mg/kg oral, one hour before carrageenin. As to the method:
Anti-inflammatory activity was evaluated by the Winter's method [Journal of Pharmacology and Experimental Therapeutics, volume 141, page 369(1963)]. Male Wistar rats (group of 6 animals) were administered orally the test compounds (dose: 6 mg/kg) one hour before inducing the edema in left hind paw with 0.1 ml of a 1% carrageenin-saline suspension. Volumes of the hind paws were determined with a volume meter 3 hours after the injection of carrageenin. Indomethacin (Control 1) and 4-vinylphenylacetic acid (Control 2) were used as controls.
A general note: In the carrageenan paw model, swelling and tenderness develop within hours.

For experiment [2], the system named is edema in left hind paw. As to the kind of experiment: Duration of inhibition of carrageenin-induced hind paw edema, test compound orally 1, 24 or 48 hours before inducing the edema. The class given is in vivo, Male Wistar rats. The following applies: Rattus norvegicus; for inhibition at 1.5 mg/kg: dose 1.5 mg/kg oral; for inhibition at 3 mg/kg: po. The procedure:
Anti-inflammatory activity was evaluated by the Winter's method [Journal of Pharmacology and Experimental Therapeutics, volume 141, page 369(1963)]. […] Volumes of the hind paws were determined with a volume meter 3 hours after the injection of carrageenin. Indomethacin (Control 1) and 4-vinylphenylacetic acid (Control 2) were used as controls.
Following a procedure similar to that of Test example 1, the test compounds were administered orally to the rats 1, 24 or 48 hours before inducing the edema, and there was obtained a result shown in Table 2.

SMILES strings stand for the structures. Where two headings read alike, the source gives them in different places.

In the case of `CC(C(=O)O)c1ccc(C=C(Cl)Cl)cc1` (stereo not drawn) [ST-1, 2-[4-(2,2-dichlorovinyl)phenyl]propionic acid], in the experiment on edema in left hind paw [1], the Inhibition of edema was determined as 66.1%. For the same compound, the inhibition at 1.5 mg/kg amounted to 42.6% in the experiment on edema in left hind paw [2] (1 hr before inducing edema, read-out: Inhibition of edema, 1 hr); 31.1% in the experiment on edema in left hind paw [2] (24 hrs before inducing edema, read-out: Inhibition of edema, 24 hrs); 25.3% in the experiment on edema in left hind paw [2] (48 hrs before inducing edema, read-out: Inhibition of edema, 48 hrs).

In the case of `COc1ccc2c(c1)c(CC(=O)O)c(C)n2C(=O)c1ccc(Cl)cc1` [Control 1, Indomethacin], the Inhibition of edema with edema in left hind paw [1] was determined as 59.3%. In addition, in the experiment on edema in left hind paw [1] (Rattus norvegicus, po, read-out: Inhibition of edema, 6 mg/kg oral, one hour before carrageenin), the inhibition at 6 mg/kg was found to be 68.2%. In addition, the inhibition at 3 mg/kg in the experiment with edema in left hind paw [2] (read-out: Inhibition of edema, 1 hr) was 30.4%; with edema in left hind paw [2] (read-out: Inhibition of edema, 24 hrs) it was 8.1%; in the experiment with edema in left hind paw [2] (read-out: Inhibition of edema, 48 hrs), 0.8%.
